What was measured:
[1] = target: T1, RVFV CBD (CBD13, RVFV L protein cap-binding domain) (Rift Valley fever virus, UniProt A2SZS3); settings: 1-10 mM ligand, 15 μM protein, 20 mM Na-phosphate pH 6.5, 100 mM NaCl
[2] = target: T1, RVFV CBD (CBD13, RVFV L protein cap-binding domain); settings: 25°C, 50 mM Na-phosphate pH 6.5, 150 mM NaCl, 10% glycerol; 9.8 mM GTP in syringe, 194 μM protein
[3] = target: T1, RVFV CBD (CBD13, RVFV L protein cap-binding domain); experiment: biochemical

T1 sequence (A2SZS3 1706-1822 limits assumed): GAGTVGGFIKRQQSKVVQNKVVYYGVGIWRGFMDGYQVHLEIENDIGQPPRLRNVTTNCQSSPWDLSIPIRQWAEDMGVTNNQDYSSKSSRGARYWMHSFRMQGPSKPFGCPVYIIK

Nc1ncnc2c1ncn2[C@@H]1O[C@H](COP(=O)(O)OP(=O)(O)OP(=O)(O)O)[C@@H](O)[C@H]1O [ATP]
ΔTm [1]: no or even negative effects on protein stability after addition of GTP or ATP

Nc1nc2c(ncn2[C@@H]2O[C@H](COP(=O)(O)OP(=O)(O)OP(=O)(O)O)[C@@H](O)[C@H]2O)c(=O)[nH]1 [GTP]
KD [2]: For GTP the KD is too high to be determined by ITC

C[n+]1cn([C@@H]2O[C@H](COP(=O)(O)OP(=O)(O)OP(=O)(O)O)[C@@H](O)[C@H]2O)c2nc(N)[nH]c(=O)c21 [m^7GTP]
Kd [3]: ~737 µM

Reference: article PMC6555543 (PLoS Pathogens, 2019)
